Experimental data as given in US20250387388A1, “COMPOUND AS TRK INHIBITOR AND/OR RET INHIBITOR AND USE THEREOF” (Medinno Pharmaceutical Technology (Zhuhai) Co., Ltd., priority 2022, published 2025).

Columns and labels:
[1] = tested on: atopic dermatitis/eczema in mice; test: Atopic dermatitis/eczema model in mice (dust mite extract + SEB); type: in vivo
adipocytes = test: Lipolysis in vitro in adipocytes; type: cell-based, C57BL/6 mouse; conditions: 5 μM
Procedure: Newly extracted neonatal C57BL/6 mouse skin fibroblasts (specific operational steps can be found in the literature: Cell Reports (2023)/doi: 10.1016/j.celrep.2023.112647) were plated and cultured in petri dishes until the cell density reached the highest and contact inhibition. Differentiation medium (DMEM+10% FBS+1× antibiotic; specific formula can be found in the literature: Cell Reports (2023)/doi: 10.1016/j.celrep.2023.112647) was then added to induce the generation of new adipocytes. […] The control group received an equal volume of DMSO. The transformation of adipocytes was observed using a Leica inverted phase contrast microscope.

[2] = tested on: phenol-induced cervicitis model in rats; test: Phenol-induced cervicitis model in rats; type: in vivo, SD rats
Procedure: • Blank Control Group (untreated) (N=5+2 rats) • Cervicitis Model Group (vehicle treatment: 20% DMA+65% PEG400+15% H2O) (N=8+2 rats) • Cervicitis Model+Positive Control Drug Group (Jieeryin lotion (1:5 dilution), 2 times/day, for 7 consecutive days) (N=8 rats) • Cervicitis Model+Low-Dose MDI-1228 Compound Lotion Group (dose: 3 mg/kg/time, 2 times/day, for 7 consecutive days) (N=8 rats) • Cervicitis Model+Medium-Dose MDI-1228 Compound Lotion Group (dose: 10 mg/kg/time, 2 times/day, for 7 consecutive days) (N=8 rats) • Cervicitis Model+High-Dose MDI-1228 Compound Lotion Group (dose: 30 mg/kg/time, 2 times/day, for 7 consecutive days) (N=8 animals) • Experimental Environment: Temperature 20° C.-26° C., humidity 40%-70%.
SD rats were acclimated for one week. After anesthesia with isoflurane, the rats were fixed in a supine position on the operation table with their limbs secured. A 1 mL syringe with a blunt needle was inserted approximately 1 cm into the rat's vagina, and 0.1 mL of 25% phenol slurry was slowly injected. The vaginal opening was immediately plugged with a sterile cotton ball, and the rat was kept in a head-down and tail-high position for 20 minutes. The injection was performed every 2 days, for a total of 3 times. The vaginal opening of the rats was observed, and the model was considered successful if there was white secretion, vaginal congestion, and swelling.
The successfully modelled rats were randomly divided into 6 groups. Animals in each group were treated according to their group assignment. The blank group (untreated) received no treatment. The positive control group was administrated with Jieeryin lotion (1:5 dilution) for vaginal irrigation twice a day, for 7 consecutive days. The low, medium, and high-dose MDI-1228 compound lotions were used for vaginal irrigation twice a day, for 7 consecutive days. The model group was given an equal amount of vehicle treatment, with the same way and duration as the test drug groups.
Clinical Symptoms Observation: The general condition of the rats (activity, diet, mental state) was continuously observed, and the rats were weighted before and after administration. Daily observations and recordings were made of changes in the local area and secretions of the rat's vulva, whether the vaginal opening is dry, and whether there is congestion, swelling in the vulva and vaginal mucosa, and whether there is vaginal fluid blood. Scoring was conducted according to the following table.
Organ Weight and Organ Index Calculation: After the last administration, the rats were sacrificed the next day, and the uterus was removed, with fat tissue and mesentery dissected away, and the weight of the cervix (from the vaginal opening to the bifurcation of the double uterus) and the liver and spleen were measured to calculate the organ index.
Pathological Detection: ELISA detection for serum markers IL-4, IL-6, IL-1β, TNF-α; ELISA detection for plasma CP; biochemical detection for MDA and T-SOD in cervical tissue.
HE Staining: Tissue samples from animal vaginal, cervical, and uterine were excised, fixed in 4% paraformaldehyde, dehydrated, embedded in paraffin, and sectioned and HE stained for observation of histopathological morphology changes. The reagents and instruments required for HE staining included: Hematoxylin staining solution (AR 11800-1, BOSTER); Eosin staining solution (ARl1800-2, BOSTER); Ultra-clean advanced mounting medium (YZB, BASO); Scott's blueing solution (G1865, Solarbio), etc. Medication refrigerator (BYC-310, Shandong Bokai Biotech); Microscope (CX41 OLYMPUS); Microtome (BQ-318D, Berne); Electric heating blast drying oven (DHG-9070A. Hengke Scientific Instrument Co., Ltd.). The taken tissue was rinsed with running water for several hours, dehydrated through a series of ethanol solutions (70%, 80%, 90%), and then treated with a mixture of pure alcohol and xylene at a ratio of 1:1 for 15 minutes, followed by xylene I for 15 minutes and xylene II for 15 minutes (until transparent). […]

[3] = 30 mg/kg/time, 2 times/day, 7 days
[4] = MDI-1228 at various doses (3, 10, 30 mg/kg)

CCc1cc(O)c(F)cc1-c1ccc2c(-c3nc4c([nH]3)CN(C(=O)N3CC[C@H](O)C3)C4)n[nH]c2c1 [MDI-1228, (S)-(2-(6-(2-ethyl-5-fluoro-4-hydroxyphenyl)-1H-indazol-3-yl)-4,6-dihydropyrrolo[3,4-d]imidazol-5-(1H)-yl)(3-hydroxylpyrrolidin-1-yl)ketone]
Skin HE staining and toluidine blue staining ([1]; 0.5% MDI-1228 gel): a decrease in mast cells and inflammatory cells compared to the model group
Skin HE staining and toluidine blue staining ([1]; 1% and 3% MDI-1228 gel): relatively significant therapeutic effects
Reduction in area under the curve (AUC) of the dermatitis scores vs. model group ([1]; 3% MDI-1228 gel): 23.75%
Number of Scratch Incidents (±SE) ([1]; Day 1, 0.5% MDI-1228 gel): 24.0 ± 3.60
Scratch Duration (±SE) ([1]; Day 1, 0.5% MDI-1228 gel): 241.00 ± 48.16
Skin Erythema, Hemorrhage, Eruption, and Desquamation (Lesion Scoring) (Mean ± SE) ([1]; Day 1, 0.5% MDI-1228 gel 0.7 g gel/kg twice a day): 4.13 ± 0.55
Number of Scratch Incidents (±SE) ([1]; Day 1, 1% MDI-1228 gel): 20.38 ± 2.08
Scratch Duration (±SE) ([1]; Day 1, 1% MDI-1228 gel): 211.50 ± 22.88
Skin Erythema, Hemorrhage, Eruption, and Desquamation (Lesion Scoring) (Mean ± SE) ([1]; Day 1, 1% MDI-1228 gel 1 g gel/kg twice a day): 4.75 ± 0.75
Number of Scratch Incidents (±SE) ([1]; Day 1, 3% MDI-1228 gel): 23.00 ± 2.46
Scratch Duration (±SE) ([1]; Day 1, 3% MDI-1228 gel): 288.00 ± 19.68
Skin Erythema, Hemorrhage, Eruption, and Desquamation (Lesion Scoring) (Mean ± SE) ([1]; Day 1, 3% MDI-1228 gel 1 g gel/kg twice a day): 3.38 ± 0.42
Skin Erythema, Hemorrhage, Eruption, and Desquamation (Lesion Scoring) (Mean ± SE) ([1]; Day 4, 0.5% MDI-1228 gel 0.7 g gel/kg twice a day): 2.88 ± 0.64
Skin Erythema, Hemorrhage, Eruption, and Desquamation (Lesion Scoring) (Mean ± SE) ([1]; Day 4, 1% MDI-1228 gel 1 g gel/kg twice a day): 3.25 ± 0.49
Skin Erythema, Hemorrhage, Eruption, and Desquamation (Lesion Scoring) (Mean ± SE) ([1]; Day 4, 3% MDI-1228 gel 1 g gel/kg twice a day): 2.63 ± 0.46
Skin Erythema, Hemorrhage, Eruption, and Desquamation (Lesion Scoring) (Mean ± SE) ([1]; Day 7, 0.5% MDI-1228 gel 0.7 g gel/kg twice a day): 2.13 ± 0.58
Skin Erythema, Hemorrhage, Eruption, and Desquamation (Lesion Scoring) (Mean ± SE) ([1]; Day 7, 1% MDI-1228 gel 1 g gel/kg twice a day): 2.13 ± 0.30
Skin Erythema, Hemorrhage, Eruption, and Desquamation (Lesion Scoring) (Mean ± SE) ([1]; Day 7, 3% MDI-1228 gel 1 g gel/kg twice a day): 1.75 ± 0.31
Number of Scratch Incidents (±SE) ([1]; Day 14, 0.5% MDI-1228 gel): 30.38 ± 3.79
Scratch Duration (±SE) ([1]; Day 14, 0.5% MDI-1228 gel): 165.63 ± 27.56
Skin Erythema, Hemorrhage, Eruption, and Desquamation (Lesion Scoring) (Mean ± SE) ([1]; Day 14, 0.5% MDI-1228 gel 0.7 g gel/kg twice a day): 1.25 ± 0.36
Number of Scratch Incidents (±SE) ([1]; Day 14, 1% MDI-1228 gel): 28.13 ± 2.05
Scratch Duration (±SE) ([1]; Day 14, 1% MDI-1228 gel): 182.0 ± 25.39
Skin Erythema, Hemorrhage, Eruption, and Desquamation (Lesion Scoring) (Mean ± SE) ([1]; Day 14, 1% MDI-1228 gel 1 g gel/kg twice a day): 1.38 ± 0.18
Number of Scratch Incidents (±SE) ([1]; Day 14, 3% MDI-1228 gel): 23.75 ± 2.62
Scratch Duration (±SE) ([1]; Day 14, 3% MDI-1228 gel): 173.13 ± 19.26
Skin Erythema, Hemorrhage, Eruption, and Desquamation (Lesion Scoring) (Mean ± SE) ([1]; Day 14, 3% MDI-1228 gel 1 g gel/kg twice a day): 1.63 ± 0.26
Effect on inflammation in atopic dermatitis/eczema (conclusion) ([1]; MDI-1228 gel preparation): significant inhibitory effects on inflammation
IFN-γ level in serum ([1]; MDI-1228 gel, vs. model group): significantly increased
IL-4 level in serum ([1]; MDI-1228 gel, vs. model group): significantly reduced
IL-13 level in serum ([1]; MDI-1228 gel, vs. model group): significantly reduced
Behavioral analysis (scratch incidents and scratch duration) ([1]; MDI-1228 high-dose (3% gel), tofacitinib 10 mg/kg): certain therapeutic effect in the behavioral analysis
Clinical lesion scoring, therapeutic effect ([1]; gels with 0.5%, 1%, 3% MDI-1228, positive control Tofacitinib 10 mg/kg, 14 days): therapeutic effects similar to the positive control drug
TNF-α level in serum ([1]; high, medium, and low dose MDI-1228 gel, vs. model group): a reduction in TNF-α levels
Lipolysis of differentiated mature adipocytes (phase contrast images) (adipocytes): promotes the lipolysis of adipocytes into smaller lipid droplets
Vaginal, cervical and uterine tissue HE staining ([2]; 3 mg/kg/time, 2 times/day, 7 days): still showed significant inflammatory cell infiltration in the entire tissue structure
Vaginal, cervical and uterine tissue HE staining ([2]; 10 mg/kg/time, 2 times/day, 7 days): marked reduction in inflammatory cells
Comprehensive score of cervicitis ([2]; 30 mg/kg/time vaginal irrigation, 2 times/day, 7 days, vs. model group): significantly reducing the comprehensive score of cervicitis
Cervical index [2, 3]: significantly reduced
Reduction of area under the continuous scoring curve, edema score [2, 3]: 19.61%
Reduction of area under the continuous scoring curve, erythema score [2, 3]: 29.99%
Reduction of area under the continuous scoring curve, secretion score [2, 3]: 21.05%
Reduction of area under the continuous scoring curve, vulvar inflammation score [2, 3]: 23.42%
Vaginal, cervical and uterine tissue HE staining [2, 3]: showing the best effect
Conditions of erythema, edema, and secretion [2, 4]: can improve the conditions of erythema, edema, and secretion
Levels of inflammatory factors [2, 4]: decrease the levels of inflammatory factors IL-10, IL-4, IL-6, and TNF-α
